Patent publication US8778963B2, “Hydroxylamine and oxime substituted imidazoquinolines, imidazopyridines, and imidazonaphthyridines” (3M Innovative Properties Company, priority 2003, dated 2014)

Row | Structure (SMILES) | melting point [°C]
1 | CON=C(C)CCCn1c(C)nc2c(N)nc3ccccc3c21 [Example 32, 5-(4-Amino-2-methyl-1H-imidazo[4,5-c]quinolin-1-yl)pentan-2-one O-methyloxime] | 158 to 161
2 | CCCc1nc2c(N)nc3ccccc3c2n1CC(C)(C)CC(C)=NOC [Example 40, 5-(4-Amino-2-propyl-1H-imidazo[4,5-c]quinolin-1-yl)-4,4-dimethylpentan-2-one O-methyloxime] | 196 to 198
3 | CCCc1nc2c(N)nc3ccccc3c2n1CCCCN(OC)C(=O)Nc1ccccc1 [Example 9] | 164 to 166
4 | CO/N=C/CCCn1c(C)nc2c(N)nc3ccccc3c21 [Example 45, 4-(4-Amino-2-methyl-1H-imidazo[4,5-c]quinolin-1-yl)butanal O-methyloxime] | 153 to 155
5 | CC(CCCn1c(C)nc2c(N)nc3ccccc3c21)=NOCc1ccccc1 [Example 31, 5-(4-Amino-2-methyl-1H-imidazo[4,5-c]quinolin-1-yl)pentan-2-one O-benzyloxime] | 146 to 148
6 | CCCc1nc2c(N)nc(C)c(C)c2n1CCCCN(O)C(=O)Nc1ccccc1 [Example 24, 1-[4-(4-Amino-6,7-dimethyl-2-propyl-1H-imidazo[4,5-c]pyridine-1-yl)butyl]-1-hydroxy-3-phenylurea] | 159 to 160.5

Second part, the compound after the results:

Row | melting point [°C] | Structure (SMILES)
7 | 201 to 203 | CON(CCCCn1c(C)nc2c(N)nc3ccccc3c21)S(C)(=O)=O [Example 47, N-[4-(4-Amino-2-methyl-1H-imidazo[4,5-c]quinolin-1-yl)butyl]-N-methoxymethanesulfonamide]
8 | 144 to 145.5 | CCCc1nc2c(N)nc(C)c(C)c2n1CCC/C(C)=N/OC [Example 5, 5-(4-Amino-6,7-dimethyl-2-propyl-1H-imidazo[4,5-c]pyridine-1-yl)pentan-2-one O-methyloxime]
9 | 155 to 156 | CCCc1nc2c(N)nc3cccnc3c2n1CCCCN(OC)C(=O)Nc1ccccc1 [Example 19, N-[4-(4-Amino-2-propyl-1H-imidazo[4,5-c][1,5]naphthyridin-1-yl)butyl]-N-methoxy-N′-phenylurea]
10 | 182 to 184 | CCCc1nc2c(N)nc3ccccc3c2n1CCCC(C)N(OC)C(=O)NC1CCCC1 (centres unmarked) [Example 16, 1-[4-(4-Amino-2-propyl-1H-imidazo[4,5-c]quinolin-1-yl)-1-methylbutyl]-N-methoxy-3-cyclopentylurea]
11 | 113 to 115 | CCCCCCC(CCCn1c(CCC)nc2c(N)nc3ccccc3c21)=NO [Example 38, 1-(4-Amino-2-propyl-1H-imidazo[4,5-c]quinolin-1-yl)decan-4-one oxime]
